# Data published in ChEMBL document CHEMBL1141411, “Structural characterization of daptomycin analogues A21978C1-3(d-Asn11) produced by a recombinant Streptomyces roseosporus strain” (2007).
# Test system: Staphylococcus aureus
# Test: Antibacterial activity against Staphylococcus aureus 42 by broth microdilution method
# Format: functional
row,MIC [µM],Structure (SMILES)
1,0.15,CCC(C)CCCCCCCCC(=O)N[C@@H](Cc1c[nH]c2ccccc12)C(=O)N[C@H](CC(N)=O)C(=O)N[C@@H](CC(=O)O)C(=O)N[C@@H]1C(=O)NCC(=O)N[C@@H](CCCN)C(=O)N[C@@H](CC(=O)O)C(=O)N[C@H](C)C(=O)N[C@@H](CC(=O)O)C(=O)NCC(=O)N[C@H](CC(N)=O)C(=O)N[C@@H]([C@H](C)CC(=O)O)C(=O)N[C@@H](CC(=O)c2ccccc2N)C(=O)O[C@@H]1C (some centres undefined)
2,0.3,CC(C)CCCCCCCCC(=O)N[C@@H](Cc1c[nH]c2ccccc12)C(=O)N[C@H](CC(N)=O)C(=O)N[C@@H](CC(=O)O)C(=O)N[C@@H]1C(=O)NCC(=O)N[C@@H](CCCN)C(=O)N[C@@H](CC(=O)O)C(=O)N[C@H](C)C(=O)N[C@@H](CC(=O)O)C(=O)NCC(=O)N[C@H](CC(N)=O)C(=O)N[C@@H]([C@H](C)CC(=O)O)C(=O)N[C@@H](CC(=O)c2ccccc2N)C(=O)O[C@@H]1C
3,0.6,CCC(C)CCCCCCC(=O)N[C@@H](Cc1c[nH]c2ccccc12)C(=O)N[C@H](CC(N)=O)C(=O)N[C@@H](CC(=O)O)C(=O)N[C@@H]1C(=O)NCC(=O)N[C@@H](CCCN)C(=O)N[C@@H](CC(=O)O)C(=O)N[C@H](C)C(=O)N[C@@H](CC(=O)O)C(=O)NCC(=O)N[C@H](CC(N)=O)C(=O)N[C@@H]([C@H](C)CC(=O)O)C(=O)N[C@@H](CC(=O)c2ccccc2N)C(=O)O[C@@H]1C (some centres undefined)
4,0.6,CCCCCCCCCC(=O)N[C@@H](Cc1c[nH]c2ccccc12)C(=O)N[C@H](CC(N)=O)C(=O)N[C@@H](CC(=O)O)C(=O)N[C@@H]1C(=O)NCC(=O)N[C@@H](CCCN)C(=O)N[C@@H](CC(=O)O)C(=O)N[C@H](C)C(=O)N[C@@H](CC(=O)O)C(=O)NCC(=O)N[C@H](CO)C(=O)N[C@@H]([C@H](C)CC(=O)O)C(=O)N[C@@H](CC(=O)c2ccccc2N)C(=O)O[C@@H]1C
